{"source": "patent US8293755B2", "about": "“Treatment of statin side effects using uridine derivatives” (Magral Pty Ltd., priority 2001, dated 2012)", "type_in_all_cases": "in vivo, human", "key": {"[1]": {"test_system": "statin induced muscle pain", "test": "Pilot clinical study: McGill Pain Questionnaire scores (PRI, PPI) in statin patients given magnesium orotate", "parameters": "key to PRI—Pain Rating Index: McGill PRI; higher scores = more pain", "details": "for PPI—Present Pain Intensity: score 0 to 5; for PPI—Present Pain Intensity / PRI—Pain Rating Index: 1600 mg/day magnesium orotate", "text": "(§1) Table 1 outlines data for seventeen patients (numbered #i-#xvii) undergoing statin therapy for treatment of hypercholesterolemia and who had reported suffering from varying levels of muscular pain and fatigue. This study is ongoing but the results below follow the study in relation to these patients for varying periods, from day 0 (T0d) up to a maximum of 56 days (T56d).\n(§2) The design of the clinical trial involves a blood sample being taken from the patients prior to commencing medication administration and then on four further occasions during the 13 week trial, at around days 13-16, days 26-30, days 35-60 and finally at days 80-90. Patients were also required to submit answers to a questionnaire on approximately a weekly basis to enable patients to be scored for pain using the McGill Pain Questionnaire (Melzack, R., 1975 “The McGill Pain Questionnaire: Major Properties and Scoring Methods”. Pain 1:277-299, the disclosure of which is included herein in its entirety by way of reference) scales for Pain Rating Index (PRI) and Present Pain Intensity (PPI). In the PRI index, which comprises two scores, higher scores indicate increasing levels of pain. In the PPI index present pain is given a score of 0 to 5, where 0 represents no pain and 5 represents excruciating pain. Patients were also scored prior to commencement of the trial medication for fatigue using the Fatigue Impact Scale (Fisk, J. D. et al, 1994, “Measuring the functional impact of fatigue: Initial Validation of the Fatigue Impact Scale”, Clinical Infectious Disease, 18 (Suppl 1):S79-83, the disclosure of which is included herein in its entirety by way of reference). On the first week at the clinic, prior to commencement of the trial medication, details of the patients' statin medication were recorded and daily doses noted.\n(§3) After the pre-trial medication blood samples and questionnaires were taken (T0d) patients commenced taking daily doses of 1600 mg of magnesium orotate, administered as 2×400 mg tablets, morning and evening.\n(§4) A preliminary statistical analysis of the results of the PRI, PPI and FIS tests for the patients on the trial as a group are presented in Table 3, below."}, "[2]": {"test_system": "statin induced fatigue", "test": "Pilot clinical study: Fatigue Impact Scale (FIS) in statin patients given magnesium orotate", "parameters": "FIS—Fatigue Impact Scale: scale not given here", "details": "for FIS—Fatigue Impact Scale: 1600 mg/day magnesium orotate", "text": "as §1, §2, §3, §4"}, "[3]": {"test": "Pilot clinical study: monitoring of blood serum components", "text": "as §2, §3\nBlood samples were taken prior to commencement of trial medication (T0d) and after approximately 14 (T14d), 28 (T28d), 42 (T42d) and 56 (T56d) days to determine individual to baseline levels of uridine (μg/ml) arising from magnesium orotate (MgOr) administration, to thereby monitor patient compliance. Blood samples taken were also used to determine creatine kinase concentration (CK) (units/L), gamma glutaryl transferase (GGT) concentration, aspartate amino transferase (AST) concentration and alanine aminotransferase concentration (ALT) (units/L), as well as serum lipid levels including total cholesterol concentration, high density lipoprotein (HDL-CHOL) concentration, low density lipoprotein (LDL-CHOL) concentration, tryglyceride (TRIG) concentration and levels of other serum components routinely tested for including magnesium ion concentration."}, "[4]": {"details": "most patients undergoing the magnesium orotate therapy"}, "[5]": {"details": "patients within the normal ranges at commencement of the trial"}}, "note": "Several values for one entry are separate records, joined by “and”; a condition that tells them apart may be missing. Identical values can stand only once."}
{"substance": "magnesium orotate", "values": [{"measurement": "PPI—Present Pain Intensity", "setting": "[1]; T7d, baseline in T0d", "value": "2 (4×) and 1 (9×) and 0 (3×)"}, {"measurement": "PRI—Pain Rating Index", "setting": "[1]; T14d", "value": "9 (2×) and 8 and 28 and 16 and 23 and 42 and 4 and 7 and 15 and 37 and 2 and 3 and 0 and 6"}, {"measurement": "PPI—Present Pain Intensity", "setting": "[1]; T14d", "value": "2 (6×) and 1 (9×)"}, {"measurement": "PRI—Pain Rating Index", "setting": "[1]; T21d", "value": "9 (2×) and 8 (2×) and 24 and 13 and 15 and 42 and 2 and 35 and 0 and 3 and 12"}, {"measurement": "PPI—Present Pain Intensity", "setting": "[1]; T21d", "value": "2 (5×) and 1 (7×) and 0"}, {"measurement": "PRI—Pain Rating Index", "setting": "[1]; T28d", "value": "2 (3×) and 3 (2×) and 11 and 4 and 0"}, {"measurement": "PPI—Present Pain Intensity", "setting": "[1]; T28d", "value": "1 (4×) and 0 (3×) and 2"}, {"measurement": "PRI—Pain Rating Index", "setting": "[1]; T35d", "value": 0}, {"measurement": "PPI—Present Pain Intensity", "setting": "[1]; T35d", "value": 0}, {"measurement": "PRI—Pain Rating Index", "setting": "[1]; T42d", "value": 0}, {"measurement": "PPI—Present Pain Intensity", "setting": "[1]; T42d", "value": 0}, {"measurement": "PRI—Pain Rating Index", "setting": "[1]; T49d", "value": 0}, {"measurement": "PPI—Present Pain Intensity", "setting": "[1]; T49d", "value": 0}, {"measurement": "PRI—Pain Rating Index", "setting": "[1]; T56d", "value": 0}, {"measurement": "PPI—Present Pain Intensity", "setting": "[1]; T56d", "value": 0}, {"measurement": "PRI and PPI pain scores", "setting": "[1]; [4]", "value": "significant improvements"}, {"measurement": "FIS—Fatigue Impact Scale", "setting": "[2]; T7d, baseline in T0d", "value": "0 and 19 and 9 and 23 and 88 and 7 and 24 and 17 and 101 and 5 and 47 and 77 and 44 and 40 and 6 and 21"}, {"measurement": "FIS—Fatigue Impact Scale", "setting": "[2]; T14d", "value": "0 and 38 and 25 and 86 (2×) and 9 (3×) and 32 and 49 and 3 and 48 and 31 and 11 and 21"}, {"measurement": "FIS—Fatigue Impact Scale", "setting": "[2]; T21d", "value": "0 and 19 and 18 and 39 and 92 and 4 and 30 and 8 and 91 and 10 and 67 and 21 and 3"}, {"measurement": "FIS—Fatigue Impact Scale", "setting": "[2]; T28d", "value": "0 and 22 and 51 and 1 and 7 and 77 and 9 and 50"}, {"measurement": "FIS—Fatigue Impact Scale", "setting": "[2]; T35d", "value": "0 and 22"}, {"measurement": "FIS—Fatigue Impact Scale", "setting": "[2]; T42d", "value": "0 and 13"}, {"measurement": "FIS—Fatigue Impact Scale", "setting": "[2]; T49d", "value": 0}, {"measurement": "FIS—Fatigue Impact Scale", "setting": "[2]; T56d", "value": 0}, {"measurement": "FIS fatigue score", "setting": "[2]; [4]", "value": "significant improvements"}, {"measurement": "serum uridine concentration", "setting": "[3]; all patients on the trial, data not presented", "value": "increase"}, {"measurement": "GGT serum concentration", "setting": "[3]; day 43, only patient significantly outside normal range at commencement, dropped from 96 U/L at day 0", "value": 83, "unit": "U/L"}, {"measurement": "AST serum concentration", "setting": "[3]; day 43, same patient, dropped from 56 U/L at commencement", "value": 42, "unit": "U/L"}, {"measurement": "ALT serum concentration", "setting": "[3]; day 43, same patient, dropped from 105 U/L at commencement", "value": 74, "unit": "U/L"}, {"measurement": "alanine amino transferase (ALT) serum concentration", "setting": "[3]; [5]", "value": "no significant impact"}, {"measurement": "aspartate amino transferase (AST) serum concentration", "setting": "[3]; [5]", "value": "no significant impact"}, {"measurement": "gamma glutaryl transferase (GGT) serum concentration", "setting": "[3]; [5]", "value": "no significant impact"}, {"measurement": "serum creatine kinase concentration (CK)", "setting": "[3]; [5]", "value": "no significant impact"}]}
